Structures can show the parent of a compound that is named as a salt.
tested on: not given; assay: not given; details: not given

Row | Structure (SMILES) | melting point [°C]
1 | C/C(=C\CN)c1ccc(Nc2cc(NC3CC3)n3ncc(C#N)c3n2)cc1C[S+](C)[O-] (racemic) (as salt: trifluoroacetic acid salt) [Example 60, (±)-(E)-5-((4-(4-aminobut-2-en-2-yl)-3-((methylsulfinyl)methyl)phenyl)amino)-7-(cyclopropylamino)pyrazolo[1,5-a]pyrimidine-3-carbonitrile mono trifluoroacetic acid salt] | 249 to 253
2 | CN(CCN)c1ccc(Nc2nc(NC3CC3)n3ncc(C#N)c3n2)cc1CS(C)(=O)=O (as salt: trifluoroacetic acid salt) [Example 52, 2-((4-((2-aminoethyl)(methyl)amino)-3-((methylsulfonyl)methyl)phenyl)amino)-4-(cyclopropylamino)pyrazolo[1,5-a][1,3,5]triazine-8-carbonitrile mono trifluoroacetic acid salt] | 55 to 59
3 | CC(CCN)c1ccc(Nc2cc(NC3CC3)n3ncc(C#N)c3n2)cc1C[S+](C)[O-] (racemic) (as salt: trifluoroacetic acid salt) [Example 64, (±)-5-((4-(R,S)-4-Aminobutan-2-yl)-3-((methylsulfinyl)methyl)phenyl)amino)-7-(cyclopropylamino)pyrazolo[1,5-a]pyrimidine-3-carbonitrile mono trifluoroacetic acid salt] | 119 to 123
4 | CN(CC1(N)CC1)c1ccc(Nc2cc(NC3CC3)n3ncc(C#N)c3n2)cc1C[S+](C)[O-] (racemic) (as salt: trifluoroacetic acid salt) [Example 65, (±)-5-((4-(((1-Aminocyclopropyl)methyl)(methyl)amino)-3-((methylsulfinyl)methyl)phenyl)amino)-7-(cyclopropylamino)pyrazolo[1,5-a]pyrimidine-3-carbonitrile mono trifluoroacetic acid salt] | 126 to 130
5 | C[S+]([O-])Cc1cc(Nc2cc(NC3CC3)n3ncc(C#N)c3n2)ccc1C1CCNC1 (racemic) (as salt: trifluoroacetic acid salt) [Example 63, (±)-7-(Cyclopropylamino)-5-((3-((methylsulfinyl)methyl)-4-((R,S)-pyrrolidin-3-yl)phenyl)amino)pyrazolo[1,5-a]pyrimidine-3-carbonitrile mono trifluoroacetic acid salt] | 173 to 177
6 | C[S+]([O-])Cc1cc(Nc2cc(NC3CC3)n3ncc(C#N)c3n2)ccc1C1CCCNC1 (racemic) (as salt: trifluoroacetic acid salt) [Example 61, (±)-7-(Cyclopropylamino)-5-((3-((methylsulfinyl)methyl)-4-((R,S)-piperidin-3-yl)phenyl)amino)pyrazolo[1,5-a]pyrimidine-3-carbonitrile mono trifluoroacetic acid salt] | 55 to 59

Results, then the compound that gave them:

Row | melting point [°C] | Structure (SMILES)
7 | 78 to 82 | CN(CCN)c1ccc(Nc2nc(NC3CC3)n3ncc(C#N)c3n2)cc1C[S+](C)[O-] (racemic) (as salt: trifluoroacetic acid salt) [Example 51, (±)-2-((4-((2-aminoethyl)(methyl)amino)-3-((methylsulfinyl)methyl)phenyl)amino)-4-(cyclopropylamino)pyrazolo[1,5-a][1,3,5]triazine-8-carbonitrile mono trifluoroacetic acid salt]
8 | 121 to 124 | CN(CCN)c1ccc(Nc2cc(NC3CC3)c3ncc(C#N)n3n2)cc1CS(C)(=O)=O (as salt: trifluoroacetic acid salt) [Example 48, 6-((4-((2-aminoethyl)(methyl)amino)-3-((methylsulfonyl)methyl)phenyl)amino)-8-(cyclopropylamino)imidazo[1,2-b]pyridazine-3-carbonitrile mono trifluoroacetic acid salt]
9 | 147 to 151 | C[S+]([O-])Cc1cc(Nc2cc(NC3CC3)n3ncc(C#N)c3n2)ccc1C1=CCNC1 (racemic) (as salt: trifluoroacetic acid salt) [Example 62, (±)-7-(Cyclopropylamino)-5-((4-(2,5-dihydro-1H-pyrrol-3-yl)-3-((methylsulfinyl)methyl)phenyl)amino)pyrazolo[1,5-a]pyrimidine-3-carbonitrile mono trifluoroacetic acid salt]

biological target: purified CK2α enzyme (Homo sapiens, UniProt P68400); assay: CK2 Protein Kinase Inhibition Assay (coupled PK/LDH assay); assay type: biochemical; details: CK2 enzyme 25 nM, 100 μM ATP, 37° C., Morrison equation
Experimental: A coupled PK (pyruvate kinase)/LDH (lactate dehydrogenase) assay was used to measure compounds' ability to inhibit purified CK2α enzyme.
The ADP product of kinase CK2a is the cofactor for PK. Phospho(enol)pyruvate (PEP) PEP is metabolized by pyruvate kinase to yield pyruvate, which is the substrate for LDH.
Serially diluted compounds were pre-incubated for 10 min at 37° C. with and 1.5 mM […] peptide substrate, 6 U/ml PK and 10 U/ml LDH (purchased from Sigma-Aldrich), 100 μM ATP, 1.2 mM NADH, 4 mM PEP in the reaction buffer (50 mM Tris (pH 8.25), 0.1 M NaCl, 10 mM magnesium acetate). The reaction was initiated by the addition of an equal volume of purified CK2 enzyme (final concentration 25 nM) diluted in the reaction buffer. Absorbance at 340 nm was measured overtime (for 30 min) at 37° C.; as NADH was converted to NAD+ the absorbance decreases. Absorbance decrease rate (per min) was plotted against the compound concentration and Ki is determined by GraphPad Prism using Morrison equation. All data points were performed in triplicate and each compound was tested in at least two separate experiments.
To this end, K, values of less than 2.5 nM are labelled as “+++”, from 2.5 nM to 10 nM are labelled as “++”, and greater than 10 nM are labelled as “+”.

purified CK2α enzyme, sequence (P68400 whole entry): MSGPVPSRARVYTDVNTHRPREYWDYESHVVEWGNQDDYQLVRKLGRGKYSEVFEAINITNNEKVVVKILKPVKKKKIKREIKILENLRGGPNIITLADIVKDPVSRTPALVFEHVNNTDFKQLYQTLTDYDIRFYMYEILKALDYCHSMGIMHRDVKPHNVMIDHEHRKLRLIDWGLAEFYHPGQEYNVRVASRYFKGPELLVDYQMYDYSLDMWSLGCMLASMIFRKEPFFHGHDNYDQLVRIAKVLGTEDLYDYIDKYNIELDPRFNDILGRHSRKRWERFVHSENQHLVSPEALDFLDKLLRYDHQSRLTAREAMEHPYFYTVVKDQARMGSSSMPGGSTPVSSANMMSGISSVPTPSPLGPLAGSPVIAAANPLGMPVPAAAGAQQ

Row | Structure (SMILES) | Ki [nM]
10 | C[S+]([O-])Cc1cc(Nc2cc(NC3CC3)n3ncc(C#N)c3n2)ccc1F (racemic) [Example 5, (±)-7-(Cyclopropylamino)-5-((4-fluoro-3-((methylsulfinyl)methyl)phenyl)amino)pyrazolo[1,5-a]pyrimidine-3-carbonitrile] | 2.5 to 10
11 | C[S+]([O-])Cc1cc(Nc2cc(Nc3ccc(N)cn3)n3ncc(C#N)c3n2)ccc1C1CC1 (racemic) [Example 57, (±)-7-((5-Aminopyridin-2-yl)amino)-5-((4-cyclopropyl-3-((methylsulfinyl)methyl)phenyl)amino)pyrazolo[1,5-a]pyrimidine-3-carbonitrile] | < 2.5
12 | C[S@@+]([O-])Cc1cc(Nc2cc(NC3CC3)n3ncc(C#N)c3n2)ccc1Cl [Example 4, (R)(−)-5-((4-Chloro-3-((methylsulfinyl)methyl)phenyl)amino)-7-(cyclopropylamino)pyrazolo[1,5-a]pyrimidine-3-carbonitrile] | 2.5 to 10
13 | CN(c1ccc(Nc2cc(NC3CC3)n3ncc(C#N)c3n2)cc1CS(C)(=O)=O)C1CNC1 [Example 45, 5-((4-(Azetidin-3-yl(methyl)amino)-3-((methylsulfonyl)methyl)phenyl)amino)-7-(cyclopropylamino)pyrazolo[1,5-a]pyrimidine-3-carbonitrile] | 2.5 to 10
14 | C[S+]([O-])Cc1cc(Nc2cc(NC3CC3)n3ncc(C#N)c3n2)ccc1N1CC[C@H](N)C1 (stereo partly drawn) [Example 23, 5-((4-((S)-3-Aminopyrrolidin-1-yl)-3-(((R,S)-methylsulfinyl)methyl)phenyl)amino)-7-(cyclopropylamino)pyrazolo[1,5-a]pyrimidine-3-carbonitrile mono trifluoroacetic acid salt] | < 2.5

Further lines, results first:

Row | Ki [nM] | Structure (SMILES)
15 | 2.5 to 10 | CS(=O)(=O)Cc1cc(Nc2cc(NC3CC3)n3ncc(C#N)c3n2)ccc1N1CC(N)C1 [Example 41, 5-((4-(3-Aminoazetidin-1-yl)-3-((methylsulfonyl)methyl)phenyl)amino)-7-(cyclopropylamino)pyrazolo[1,5-a]pyrimidine-3-carbonitrile]
16 | 2.5 to 10 | C[S+]([O-])Cc1cc(Nc2cc(NC3CC3)n3ncc(C#N)c3n2)ccc1OCC(C)(C)N (racemic) [Example 30, (±)-5-((4-(2-amino-2-methylpropoxy)-3-((methylsulfinyl)methyl)phenyl)amino)-7-(cyclopropylamino)pyrazolo[1,5-a]pyrimidine-3-carbonitrile mono trifluoroacetic acid salt]
17 | 2.5 to 10 | C[S+]([O-])Cc1cc(Nc2cc(NC3CC3)n3ncc(C#N)c3n2)ccc1C1=CCNC1 (racemic) [Example 62, (±)-7-(Cyclopropylamino)-5-((4-(2,5-dihydro-1H-pyrrol-3-yl)-3-((methylsulfinyl)methyl)phenyl)amino)pyrazolo[1,5-a]pyrimidine-3-carbonitrile mono trifluoroacetic acid salt]

Reference: patent US10227344B2, “CK2 inhibitors, compositions and methods thereof” (Polaris Pharmaceuticals, Inc., priority 2016, dated 2019)
